Measurements taken from PMC8911181, “A Novel CDK4/6 and PARP Dual Inhibitor ZC-22 Effectively Suppresses Tumor Growth and Improves the Response to Cisplatin Treatment in Breast and Ovarian Cancer” (International Journal of Molecular Sciences, 2022).

Experiments:
SUM-159 cells = experiment: Cell viability assay (CCK-8), IC50; format: cell-based; details: Homo sapiens, SUM159, 6 days, medium replenished every 2 days
Description: (§1) Human breast cancer cell lines MDA-MB-231 and SUM-159, and human ovarian cancer cell lines OVCAR5 and SKOV3 were obtained from the American Type Culture Collection (ATCC). MDA-MB-231 cells were cultured in L-15 medium with 10% fetal bovine serum (FBS), incubated at 37 °C in a humidified incubator without additional CO2. SUM-159 cells were maintained in Dulbecco’s modified Eagle’s medium (DMEM) containing 10% FBS, and OVCAR5 and SKOV3 cells were incubated in Roswell Park Memorial Institute (RPMI)-1640 medium with 10% FBS and cultured at 37 °C in a humidified incubator containing 5% CO2.
(§2) Cell viability assay was performed as described before. Briefly, 2500/well of breast or ovarian cancer cells were seeded into a 96-well plate; grown overnight; treated with indicated concentration of Olaparib, LY2835219, ZC22, LP-1, GC-24, or cisplatin alone or together for an indicated amount of time; and then incubated with Cell Counting kit-8 (CCK-8) substrate (Dojindo, Kumamoto, Kyushu Island, Japan) for 1–2 h at 37 °C. Cell viability was calculated by the absorbance at 450 nm measured by the GloMax Explorer (Promega, Madison, WI, USA). Cells without treatment were set as 100%, and medium control (no cells) was set as 0%.
(§3) Figure 1 Synthesis strategy and activity assay of the novel compounds targeting both PARP and CDK4/6. (A) Synthesis strategy of the three novel compounds GC-24, LP-1, and ZC-22. (B) IC50 of GC-24, LP-1, and ZC-22 in breast and ovarian cancer cells. Cells were treated with increasing concentrations of GC-24, LP 1, or ZC-22 for 6 days with replenishment of medium every 2 days. Cell proliferation was analyzed by CCK-8 assays. (C) The reagents and conditions used for the chemical synthesis of ZC-22 in this study: (a) Pd(AcO)2, BINAP, CS2CO3, 1,4-Dioxane, 100 °C, 12 h; (b) CF3COOH, DCM, Room temperature, 6 h; (c) HOBt, EDCI, DIPEA, DMF, Room temperature, 12 h. TEXT PRINTED IN THE PICTURE: (B) LP-1: MDA-MB-231 IC50 (μM): >50; SUM-159 IC50 (μM): 7.780; OVCAR5 IC50 (μM): 10.11; SKOV3 IC50 (μM): 10.16 | (B) GC-24: MDA-MB-231 IC50 (μM): 33.77; SUM-159 IC50 (μM): 17.77; OVCAR5 IC50 (μM): 26.08; SKOV3 IC50 (μM): >50 | (B) ZC-22: MDA-MB-231 IC50 (μM): 3.608; SUM-159 IC50 (μM): 0.435; OVCAR5 IC50 (μM): 0.758; SKOV3 IC50 (μM): 0.542
(§4) Figure 2 ZC-22 suppresses proliferation of breast and ovarian cancer cells. (A) IC50 of ZC-22, Olaparib, and LY2835219 (Abemaciclib) in breast and ovarian cancer cells. Cells were treated with increasing concentrations of ZC-22, Olaparib, or LY2835219 for 6 days with replenishment of medium every 2 days. Cell proliferation was analyzed by CCK-8 assays. (B) Cell proliferation assay of breast and ovarian cancer cells with indicated treatment. MDA-MB-231 cells were treated with 2 μM Olaparib (OLA) or LY2835219 (LY-2) alone or together (OLA + LY-2) or with ZC-22 alone for 48 or 72 h. SUM-159, OVCAR5, and SKOV3 cells were treated with 0.5 μM OLA or LY-2 alone or together or with ZC-22 alone. Cell proliferation assay was analyzed by CCK-8 assays. Values are means ± SD, n = 3. ns, not significant, * p < 0.05, ** p < 0.01 and *** p < 0.001 for comparisons with the DMSO-treated group using an unpaired t-test. TEXT PRINTED IN THE PICTURE: (A) ZC-22: MDA-MB-231 IC50 (μM): 3.608; SUM-159 IC50 (μM): 0.435; OVCAR5 IC50 (μM): 0.758; SKOV3 IC50 (μM): 0.542 | (A) LY2835219: MDA-MB-231 IC50 (μM): 11.28; SUM-159 IC50 (μM): 0.664; OVCAR5 IC50 (μM): 9.791; SKOV3 IC50 (μM): 1.158 | (A) Olaparib: MDA-MB-231 IC50 (μM): 32.13; SUM-159 IC50 (μM): 19.29; OVCAR5 IC50 (μM): 30.51; SKOV3 IC50 (μM): >50

SKOV3 cells = experiment: Cell viability assay (CCK-8), IC50; format: cell-based; details: Homo sapiens, SK-OV-3, 6 days, medium replenished every 2 days
Description: as §1, §2, §3, §4

OVCAR5 cells = experiment: Cell viability assay (CCK-8), IC50; format: cell-based; details: Homo sapiens, OVCAR-5, 6 days, medium replenished every 2 days
Description: as §1, §2, §3, §4

MDA-MB-231 cells = experiment: Cell viability assay (CCK-8), IC50; format: cell-based; details: Homo sapiens, 6 days, medium replenished every 2 days
Description: as §1, §2, §3, §4

[1] = test system: MDA-MB-231 xenograft tumors; experiment: Breast cancer xenograft mouse model, tumor growth; format: in vivo, mice; details: 1.5 mg/kg cisplatin or 50 mg/kg ZC-22 ip alone or together
Description: Six-week-old female athymic nude mice (Homozygous) were purchase from Vital River Laboratories (Beijing, China) and maintained under the guidelines for laboratory animals of Nankai university (NKU). Mice were injected subcutaneously with 2 × 10^6 MDA-MB-231 or 8 × 10^6 OVCAR5 cells. When tumors were 50–100 mm^3 in size, the mice were randomly grouped and treated intraperitoneal (i.p.) with 50 mg/kg of Olaparib, 50 mg/kg of LY2835219, 50 mg/kg of ZC-22, or 1.5 mg/kg of cisplatin alone or in combinations or with the vehicle (PBS containing 10% DMSO and 10% 2-hydroxy-propyl-β-cyclodextrin) every 2 days. Tumor volume was measured every 3–4 days, which was calculated as Length × Width^2/2. At the end of the study, tumor and major organ tissues were harvested by surgery. For histopathological analysis, tissue samples were washed with PBS, fixed in 4% paraformaldehyde (PFA), paraffin-embedded, and sectioned into 7 μm thickness. For Western blot analysis, the tissue samples were dissociated by a tissue-tearor in RIPA buffer containing 1×protease and phosphatase inhibitors.
Figure 4 ZC-22 suppresses growth of breast cancer xenografts. Female NOD-SCID mice were injected subcutaneously with 2 × 10^6 of MDA-MB-231 cells and treated ip daily with 50 mg/kg of Olaparib (OLA) or LY2835219 (LY-2) alone or together (OLA + LY-2) or with ZC-22 alone starting on day 10 after injection of cells when tumors were 50–80 mm^3 in size. Tumor volumes were measured every 2–3 days. […] (B,C) Pictures of (B) and quantification of the size of (C) the MDA-MB-231 xenograft tumors at the end points. […] (E) Quantification of Ki67 (Left) and γH2A.X (Right)-positive cells in immunohistochemical staining of the xenograft tumor tissues. […]
Figure 6 ZC-22 sensitizes breast cancer cells to cisplatin treatment in vivo. […] Tumor volumes were measured every 2–3 days. […] (B,C) Pictures (B) and quantification of the size (C) of the MDA-MB-231 xenograft tumors at the end points. […] (E) Quantification of Ki67 (left) and γH2A.X (right)-positive cells in immunohistochemical staining of the xenograft tumor tissues. […]

| IC50 (SKOV3 cells) [µM] | IC50 (OVCAR5 cells) [µM] | IC50 (MDA-MB-231 cells) [µM] | Compound | IC50 (SUM-159 cells) [µM] | growth of the xenograft tumors [1] |
| --- | --- | --- | --- | --- | --- |
| > 50 | 26.1 | 33.8 | CC(=O)c1c(C)c2cnc(Nc3ccc(N4CCN(C(=O)c5cc(Cc6n[nH]c(=O)c7ccccc67)ccc5F)CC4)cn3)nc2n(C2CCCC2)c1=O [GC-24] | 17.8 | – |
| 10.2 | 10.1 | > 50 | CN(C)C(=O)c1cc2cnc(Nc3ccc(N4CCN(C(=O)c5cc(Cc6n[nH]c(=O)c7ccccc67)ccc5F)CC4)cn3)nc2n1C1CCCC1 [LP-1] | 7.78 | – |
| > 50 | 30.5 | 32.1 | O=C(c1cc(Cc2n[nH]c(=O)c3ccccc23)ccc1F)N1CCN(C(=O)C2CC2)CC1 [Olaparib, reference compound] | 19.3 | – |
| – | – | – | N.N.[Cl][Pt][Cl] [cisplatin] | – | effectively inhibit growth of the xenograft tumors |
